Test system: dicotyledonous harmful plants (ABUTH, AMARE, IPOSS, SOLNI)
Assay: Greenhouse experiment, post-emergence treatment: herbicidal action
Type: in vivo
Settings: application rates of 3.9 and 1.95 g/ha of a.s., 2 to 4 weeks
Source text: The test period extended over 2 to 4 weeks.

Question: How did the “herbicidal effect on dicotyledonous harmful plants compared with Comparative Example A” value turn out when “3-(4-Chloro-2-fluoro-5-(1-methoxycarbonyl-1-vinyloxy)phenyl)-1-methyl-6-trifluoromethyl-2,4-(1H, 3H)pyrimidinedione [Example 2]” was run?
Answer: The value was “at least as good a herbicidal effect”.

Reference: US6528455B1, “Phenoxy-and thiophenoxy acrylic acid compounds as herbicides” (BASF Aktiengesellschaft, priority 1999, dated 2003)
